The values that follow are results of earlier work, collected in patent US20160000716A1, “METHOD OF TREATING VITAMIN B12 DEFICIENCY” (Pharmaceutical Productions Inc., priority 2013, published 2016).

The conditions of this series: over a wide dosing range, independent of the presence of intrinsic factor.

In the case of Vitamin B-12, the “Fraction of oral Vitamin B-12 absorbed” value is “approximately 1.2%”.
